{"source": "patent US8518956B2", "about": "“1-(1-(2-ethoxyethyl)-3-ethyl-7-(4-methylpyridin-2-ylamino)-1H-pyrazolo[4,3-d]pyrimidin-5-yl) piperidine-4-carboxylic acid and salts thereof” (priority 2005, dated 2013)", "key": {"PDE6 enzyme": {"molecular_target": "PDE6 enzyme", "conditions": "read-out: METHOD 2: PDE6 IC50; Table F, WO2004096810 examples", "text": "Method 2: Human Retina PDE6 Enzyme Inhibition Scintillation Proximity Assay (SPA)\nThe inhibition of PDE6 enzyme activity by a test compound can be measured in accordance with the in vitro assay of Method 1, but instead using semi-purified PDE6 enzyme isolated from human, bovine or canine retina in place of PDE5 enzyme. […] [3H]GMP binds to yttrium silicate SPA beads and is detected by scintillation counting. • PDE6 Purification: PDE6 can be isolated and purified from the following: Soluble rod PDE6/Rod Outer Segment PDE6 from Bovine eyes (Charles River Ltd, France); Cone PDE6 from Canine eyes (LAS); or Soluble rod and Cone PDE6 from Human eyes (I.I.A.M.).\nWhile supporting the eye with the cornea uppermost, make a small incision through the conjunctiva below the level of the iris. The incision should be sufficient to allow the humor to escape through the cut. Using fine scissors, cut around the cornea to enable it to be lifted off as a flap. Using a small hook, engage the lens and gently pull it out of orbit, taking care not to pull out the retina at the same time. Allow the retina to drop down of its own accord to the base of the orbit.\nLift the retina with care and locate the optic nerve. Cut through the optic nerve and transfer the retina to a small dish containing a few ml of homogenisation buffer. Gently float the retina out on the surface of the buffer and remove any obvious pigmented material from the iris. Place the retina in a second dish with clean buffer to remove last traces of pigment and then transfer to a 50 ml Corning Costar centrifuge tube (Sigma) and keep on ice. • PDE6 Isolation and Purification from Retina: Allow 2 mls of the homogenisation buffer per bovine retina and 1 ml per retina for dog and human. Homogenise using hand-held homogeniser 3×5 second bursts cooling on ice between each burst. Filter homogenate through two layers of surgical gauze. Spin at 100,000 g for 60 minutes at 4° C. […] Run through FPLC (Pharmacia FPLC LKB/FRAC-100, Pharmacia) or aliquot and store in liquid nitrogen as needed. Method 2A: Alternative Human Retina PDE6 Enzyme Inhibition Scintillation Proximity Assay (SPA)"}, "PDE5 enzyme": {"molecular_target": "T1, PDE5 enzyme (Homo sapiens, UniProt O76074)", "T1 construct": "The PDE5 enzyme isolated from human platelets; from tissue; host or cells: human platelets", "assay": "Method 1: Human Platelet PDE5 Enzyme Inhibition Scintillation Proximity Assay", "type": "biochemical", "conditions": "METHOD 1: PDE5 IC50, Table B, WO2004096810 examples", "outline": "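Human platelet PDE5 hydrolysing 500 nM cGMP (3:1 unlabelled:[3H]) in Tris-HCl pH 7.4 with MgCl2 and BSA, 60 min at 30 °C. Reaction stopped with yttrium silicate SPA beads and [3H]GMP counted by scintillation. IC50 from sigmoid curves over a 10-point half-log dilution series, in duplicate.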"}}, "data": [{"smiles": "CCc1nn(CCOCC(F)(F)F)c2c(Nc3cc(C)ncn3)nc(N3CCC(C(=O)O)CC3)nc12", "note": "[WO2004096810 Example 263]", "values": [{"measurement": "IC50", "setting": "PDE6 enzyme", "value": 0.0253, "unit": "µM"}, {"measurement": "IC50", "setting": "PDE5 enzyme", "value": 0.00027, "unit": "µM"}]}, {"smiles": "Cc1cc(Nc2nc(N3CCC(C(=O)O)CC3)nc3c(C)nn(CCOCC(F)(F)F)c23)ncn1", "note": "[WO2004096810 Example 262]", "values": [{"measurement": "IC50", "setting": "PDE6 enzyme", "value": 0.0477, "unit": "µM"}, {"measurement": "IC50", "setting": "PDE5 enzyme", "value": 0.00093, "unit": "µM"}]}, {"smiles": "Cc1ccnc(Nc2nc(N3CCC(C(=O)O)CC3)nc3c(C)nn(CCOCC(F)(F)F)c23)c1", "note": "[WO2004096810 Example 261]", "values": [{"measurement": "IC50", "setting": "PDE6 enzyme", "value": 0.0588, "unit": "µM"}, {"measurement": "IC50", "setting": "PDE5 enzyme", "value": 0.00057, "unit": "µM"}]}]}
